Laboratory results as given in patent publication US10765625B2, “Knottin-drug conjugates and methods of using the same” (THE BOARD OF TRUSTEES OF THE LELAND STANFORD JUNIOR …, priority 2016, dated 2020).
Where two headings read alike, the source gives them in different places.

Assays:
U87MG cells [1] = experiment: Competition binding assay with AF488-labeled EETI-2.5F (AF488-1), flow cytometry; details: competition with 1 nM AF488-1, 4° C., 3 hours, read-out: IC50 (nM), binding affinity
Description: Once the knottin-drug conjugates 5a-d were prepared, their binding affinity to U87MG glioblastoma cells, which are known to have elevated expression of tumor-associated integrins, was tested. […] To measure the relative binding affinities of knottins 1 and 2 and KDCs 5a-d, competition binding assays were performed using AlexaFluor 488-conjugated EETI-2.5F (AF488-1) as previously described (J. W. Kim, et al., J. Am. Chem. Soc. 2015, 137, 6-9). Cells (5×10^4 per sample) were detached with 0.05% Trypsin-EDTA, washed with IBB (25 mM Tris pH 7.4, 150 mM NaCl, 2 mM CaCl2, 1 mM MgCl2, 1 mM MnCl2, and 0.1% bovine serum albumin), and incubated with 1 nM AF488-1 and varying concentrations of competitors in 800 μL of IBB at 4° C. for 3 hours. The cells were washed twice with 800 μL of PBSA (phosphate buffered saline containing 0.1% bovine serum albumin) and the fluorescence of the surface-bound AF488-1 was determined using flow cytometry. The fluorescence was normalized to that of cells treated with AF488-1 alone to obtain the fraction bound. Half-maximal inhibitory concentration (IC50) values were determined by nonlinear regression analysis. Error bars represent the standard deviation of experiments performed in triplicate.

U87MG cells [2] = experiment: Cell proliferation, CCK-8 colorimetric assay; format: cell-based
Description: (§1) U87MG, and PANC-1 cells were grown in Dulbecco's Modified Eagle Medium (DMEM) with 10% fetal bovine serum (FBS) and 1% penicillin/streptomycin. MDA-MB-468 cells were grown in DMEM and Ham's F-12 medium (DMEM/F12) with 10% FBS and 1% penicillin/streptomycin. A2780 and BxPC3 cells were grown in Roswell Park Memorial Institute medium (RPMI) 1640+L-glutamine, with 10% FBS and 1% penicillin/streptomycin. D270 cells were grown in MEM (Richter's modification, no phenol red) with 10% FBS and 0.1% Gentamicin. Unless otherwise specified, cells were incubated at 37° C., 5% CO2. Flow cytometry was performed using an EMD Millpore Guava EasyCyte 8HT flow cytometer and the resulting data were evaluated using FlowJo software provided by TreeStar, Inc. Cell proliferation was measured using the Dojindo Cell Counting Kit-8 by replacing the media in each well with 100 μL of media containing 10% WST-8. After incubation for 1 h at 37° C., absorbance, A, at 450 nm was measured with a BioTek Synergy H4 microtiter plate reader. The background signal of CCK-8 alone was subtracted from all samples. Cell proliferation was then expressed as a percentage of absorbance relative to the control of untreated cells (Equation 2). Nonlinear regression analysis was performed using GraphPad Prism.
Next, the potency of each KDC was tested in a cell-proliferation experiment. […] Cells were seeded in a 96-well plate at a density of 2,500 cells per well and grown overnight at 37° C., 5% CO2 in DMEM with 10% FBS and 1% penicillin/streptomycin. Cells were subsequently treated with 100 μL of fresh media, containing varying concentrations of drug, protein, or protein-drug conjugate and incubated for 4 d at 37° C., 5% CO2. Cell proliferation was measured according to the method described in Section 1.3. Error bars represent the standard deviation of experiments performed in triplicate. […] Given that the linker must be cleaved to release free Gemcitabine in order for the payload to become active, the low potency of 5b can be explained by the greater stability of the carbamate group as compared to the other linkers tested.

U87MG cells [3] = experiment: Premature drug release study: cell proliferation (CCK-8) with hENT1 inhibitor 6 co-administered; format: cell-based; details: for Effect of hENT1 inhibitor 6 on potency (ED50) (in words): U87MG cells, increasing concentrations of 6 up to 10 μM; for Fold Increase in ED50 in U87MG Cells: ED50 with 6 / ED50 without 6, minus 1
Description: as §1
The relative extent of premature drug-release in the cases of 5a, 5c, and 5d was next determined in order to identify the linker best-suited for delivering the drug payload intracellularly. An established technique for blocking the cellular uptake of Gemcitabine by using S (4-nitrobenzyl)-6-thioinosine (6) was employed, which is known to inhibit human equilibrative nucleoside transporters, such as hENT1. Because hENT1 is a critical regulator of the cellular internalization of Gemcitabine, it was reasoned that by inhibiting its activity with 6, the cytotoxic effect of any drug payload that was released in the extracellular environment could be diminished. It was anticipated that this would allow the distinction between KDCs that were potent due to the undesirable release of Gemcitabine outside of the cell from those that released Gemcitabine intracellularly (FIG. 6). The extent of premature drug release in the extracellular environment was studied by inhibiting activity of nucleoside transporters (such as hENT1) of U87MG cells through the use of the hENT1 inhibitor S-(4-nitrobenzyl)-6-thioinosine (6). […] In a similar fashion, it was expected that for KDCs which released a significant amount of the drug payload in the extracellular environment, an increase in the concentration of 6 should result in a concomitant increase in ED50 value.
Media used to prepare varying concentrations of drug, protein, or protein-drug conjugate also contained varying concentrations of the hENT1 inhibitor, 6. Additionally, prior to treatment, cell were incubated at 37° C., 5% CO2 with fresh media containing the varying concentrations of 6 for 2 h. Cell proliferation was measured using the Cell Counting Kit-8 by replacing the media in each well with 100 μL of media containing 10% WST-8. After incubation for 1 h at 37° C., absorbance at 450 nm was measured with a Synergy H4 microtiter plate reader. ED50 values were determined by nonlinear regression analysis. Example dose-response curves for 3 (FIG. 7) and 5d (FIG. 8) are provided. Cell proliferation was measured according to the method described in Section 1.3. Error bars represent the standard deviation of experiments performed in triplicate.
These values were normalized as Fold Increase in ED50 (defined in Equation 2) by dividing the ED50 of each drug when 6 was co-administered at concentration=C by the ED50 of that same drug when no 6 was added, then subtracting 1 (thus, a “0-fold increase” would mean no increase, while a “1-fold increase” would mean that the ED50 value had doubled). Fold Increase in ED50 for each drug at each concentration of 6 is provided in Table 5, and these values were used to generate FIG. 9.

U87MG cells [4] = experiment: Integrin-blocking competition: cell proliferation (CCK-8) after pre-treatment with EETI-2.5F (1); format: cell-based; details: 1 μM 1, 3 h pre-treatment and co-treatment
Description: as §1
One possible explanation for the apparent hENT1-independence of 5d is that its route of internalization could be integrin-mediated. The role of integrin-binding in the biological potency and hENT1-independence of 5d was determined. A competition experiment was carried out in which U87MG cells were pre-treated with unconjugated EETI-2.5F (1) in order to block integrins on the cell surface. The role of integrin-binding was studied by measuring the proliferation of U87MG cells that had been pre-treated with EETI-2.5F (1) when exposed to increasing doses of 3 and KDCs 5a, 5c, and 5d. […] Media used to prepare varying concentrations of drug, protein, or protein-drug conjugate also contained 1 μM of 1. Prior to treatment, cells were incubated for 3 h at 37° C., 5% CO2 with fresh media containing 1 μM 1. After this pre-treatment, cells were incubated with varying concentrations of 5a, 5c, or 5d for 24 h and then media was replaced with fresh media and cells were incubated for an additional 48 h. Cell proliferation was measured using the Cell Counting Kit-8 by replacing the media in each well with 100 μL of media containing 10% WST-8. After incubation for 1 h at 37° C., absorbance at 450 nm was measured with a Synergy H4 microtiter plate reader. Cell proliferation was measured according to the method described in Section 1.3. Error bars represent the standard deviation of experiments performed in triplicate.

[5] = system: A2780 ovarian cancer cells; experiment: Cell proliferation, CCK-8 colorimetric assay; format: cell-based; details: Homo sapiens, 96 h, 4 d after treatment, read-out: ED50 (nM), cell growth inhibition
Description: as §1
(§2) Having identified KDC 5d as a potent inhibitor of U87MG cells with desirable payload-release properties, its efficacy against a variety of other cell lines in comparison with Gemcitabine (3) was next tested. Cells were seeded in a 96-well plate at a density of 2,500 cells per well and grown overnight at 37° C., 5% CO2 in the media described in Section 1.3. Cells were subsequently treated with 100 μL of fresh media, containing 50 nM of 3 or 5d. Cells were incubated at 37° C., 5% CO2 for 4 d. Cell proliferation was measured using the Cell Counting Kit-8 by replacing the media in each well with 100 μL of media containing 10% WST-8. After incubation for 1 h at 37° C., absorbance at 450 nm was measured with a Synergy H4 microtiter plate reader. Cell proliferation was measured according to the method described in Section 1.3. Error bars represent the standard deviation of experiments performed in triplicate.

[6] = system: BxPC3 pancreatic cancer cells; experiment: Cell proliferation, CCK-8 colorimetric assay; format: cell-based; details: Homo sapiens, BXPC-3, 96 h, 4 d after treatment, read-out: ED50 (nM), cell growth inhibition
Description: as §1, §2

D270 glioblastoma cells = experiment: Cell proliferation, CCK-8 colorimetric assay; format: cell-based; details: 96 h, 4 d after treatment, read-out: ED50 (nM), cell growth inhibition
Description: as §1, §2

[7] = system: MDA-MB-468 breast cancer cells; experiment: Cell proliferation, CCK-8 colorimetric assay; format: cell-based; details: Homo sapiens, MDA-MB-468, 96 h, 4 d after treatment, read-out: ED50 (nM), cell growth inhibition
Description: as §1, §2

[8] = system: PANC-1 pancreatic cancer cells; experiment: Cell proliferation, CCK-8 colorimetric assay; format: cell-based; details: Homo sapiens, 96 h, 4 d after treatment, read-out: ED50 (nM), cell growth inhibition
Description: as §1, §2

| Structure (SMILES) | IC50 (U87MG cells [1]) | Potency / growth inhibition in U87MG cells (in words) (U87MG cells [2]; U87MG cells, 4 d) | EC50 (U87MG cells [2]; U87MG cells, 4 d incubation, vs untreated control, read-out: ED50 (nM), potency) | Effect of hENT1 inhibitor 6 on potency (ED50) (in words) (U87MG cells [3]) | Fold Increase in ED50 in U87MG Cells (U87MG cells [3]; [6] = 0 nM) | Fold Increase in ED50 in U87MG Cells (U87MG cells [3]; [6] = 1 nM) | Fold Increase in ED50 in U87MG Cells (U87MG cells [3]; [6] = 10 nM) | Fold Increase in ED50 in U87MG Cells (U87MG cells [3]; [6] = 100 nM) | Fold Increase in ED50 in U87MG Cells (U87MG cells [3]; [6] = 1000 nM) | Fold Increase in ED50 in U87MG Cells (U87MG cells [3]; [6] = 10000 nM) | Effect of integrin blocking by pre-treatment with 1 on potency (in words) (U87MG cells [4]) | EC50 (U87MG cells [2]; Homo sapiens, U-87 MG, 96 h, U87MG cells, 4 d incubation, vs untreated control, read-out: ED50 (nM), potency) | EC50 (U87MG cells [2]; Homo sapiens, U-87 MG, 96 h, U87MG glioblastoma, 4 d after treatment, read-out: ED50 (nM), cell growth inhibition) | EC50 [5] | EC50 [6] | EC50 (D270 glioblastoma cells) | EC50 [7] | EC50 [8] |
| --- | --- | --- | --- | --- | --- | --- | --- | --- | --- | --- | --- | --- | --- | --- | --- | --- | --- | --- |
| CC(C)C[C@@H]1NC(=O)[C@@H]2CSSC[C@@H](C(=O)NCC(=O)O)NC(=O)[C@H](Cc3ccccc3)NC(=O)CNC(=O)[C@H](CC(N)=O)NC(=O)[C@@H]3CCCN3C(=O)CNC(=O)[C@@H]3CSSC[C@H](NC(=O)[C@H]([C@@H](C)O)NC(=O)[C@H](CC(C)C)NC(=O)[C@@H]4CCCN4C(=O)[C@@H]4CCCN4C(=O)[C@H](CC(N)=O)NC(=O)[C@H](CC(=O)O)NC(=O)CNC(=O)[C@H](CCCNC(=N)N)NC(=O)[C@@H]4CCCN4C(=O)[C@H](CCCNC(=N)N)NC(=O)[C@@H]4CCCN4C(=O)[C@@H](NC(=O)CN)CSSC[C@H](NC(=O)CNC(=O)[C@H](C)NC1=O)C(=O)N[C@@H](C(C)C)C(=O)N3)C(=O)N[C@@H](CCCn1cc(CCC(=O)Nc3ccn([C@@H]4O[C@H](CO)[C@@H](O)C4(F)F)c(=O)n3)nn1)C(=O)N[C@@H](CCC(N)=O)C(=O)N[C@@H](CC(=O)O)C(=O)N[C@@H](CO)C(=O)N[C@@H](CC(=O)O)C(=O)N2 [5c] | 2.8 ± 0.2 nM | low-nanomolar ED50 values | 8.9 ± 1.2 nM | much less sensitive | 0 | 0.5 ± 0.2 | 1.0 ± 0.2 | 7.8 ± 4.8 | 18.0 ± 5.2 | 31.1 ± 5.1 | did not diminish the potency |  |  |  |  |  |  |  |
| Nc1ccn([C@@H]2O[C@H](CO)[C@@H](O)C2(F)F)c(=O)n1 [compound 3, Gemcitabine, reference compound] |  |  |  | increased significantly | 0 | 0.2 ± 0.4 | 1.5 ± 0.1 | 15.8 ± 0.3 | 44.7 ± 0.3 | 128.6 ± 2.8 | no effect on potency | 1.1 ± 1.4 nM | 1.7 ± 1.4 nM | 0.5 ± 0.02 nM | 18.4 ± 1.3 nM | 1.5 ± 0.4 nM | 17.3 ± 6.8 nM | 52.8 ± 4.9 nM |
